The results in this text go back to ChEMBL document CHEMBL4145694 (J Med Chem, 2018).

Active and inactive are the calls of the source. No cut-off for these calls is given here. Some results are limits rather than exact numbers.

In data set [1] the target is Kappa-type opioid receptor (Homo sapiens) (UniProt P41145). The data set is described as follows: Agonist activity at human kappa-opioid receptor expressed in CHO cell membranes assessed as stimulation of [35S]GTPgammaS binding at 10 uM incubated for 60 mins by scintillation counting method. The data set is classed as functional.
The species entered for data set [2] is Homo sapiens. The data set is described as follows: Selectivity index, ratio of Ke for antagonist activity at human mu-opioid receptor expressed in CHO cell membranes to Ke for antagonist activity at human kappa-opioid receptor expressed in CHO cell membranes. The data set is classed as cell-based.
In data set [3] the target is Delta-type opioid receptor (Homo sapiens) (UniProt P41143). The data set is described as follows: Agonist activity at human delta-opioid receptor expressed in CHO cell membranes assessed as stimulation of [35S]GTPgammaS binding at 10 uM incubated for 60 mins by scintillation counting method. It counts as functional.
The target of data set [4] is Mu-type opioid receptor (Homo sapiens) (UniProt P35372). In words: Agonist activity at human mu-opioid receptor expressed in CHO cell membranes assessed as stimulation of [35S]GTPgammaS binding at 10 uM incubated for 60 mins by scintillation counting method. It counts as functional.
The target is the same in data set [5]. The data set is described as follows: Antagonist activity at human mu-opioid receptor expressed in CHO cell membranes assessed as inhibition of DAMGO-induced [35S]GTPgammaS binding incubated for 60 mins by scintillation counting method. The data set is classed as functional.
For data set [6], the target named is Delta-type opioid receptor (Homo sapiens) (UniProt P41143). In words: Antagonist activity at human delta-opioid receptor expressed in CHO cell membranes assessed as inhibition of DPDPE-induced [35S]GTPgammaS binding incubated for 60 mins by scintillation counting method. It counts as functional.
For data set [7], the species on record is Homo sapiens. The data set is described as follows: Selectivity index, ratio of Ke for antagonist activity at human delta-opioid receptor expressed in CHO cell membranes to Ke for antagonist activity at human kappa-opioid receptor expressed in CHO cell membranes. The data set is classed as cell-based.
The target of data set [8] is Kappa-type opioid receptor (Homo sapiens) (UniProt P41145). In words: Antagonist activity at human kappa-opioid receptor expressed in CHO cell membranes assessed as inhibition of U69593-induced [35S]GTPgammaS binding incubated for 60 mins by scintillation counting method. The data set is classed as functional.
Data set [9] can be described thus: in vivo. Conditions: Sprague-Dawley CD, rat, plasma, sc, 5 mg/kg.
A short description of data set [10]: AUClast in brain of Sprague-Dawley CD rat at 5 mg/kg, sc administered as single dose measured over 1 to 168 hrs post dose by LC/MS-MS method. It counts as ADME, organism-based. Conditions: in vivo.
Data set [11] in a line: Half life in plasma of Sprague-Dawley CD rat at 5 mg/kg, sc administered as single dose measured over 1 to 168 hrs post dose by LC/MS-MS method. It counts as ADME, organism-based.
Data set [12] in a line: AUClast in plasma of Sprague-Dawley CD rat at 5 mg/kg, sc administered as single dose measured over 1 to 168 hrs post dose by LC/MS-MS method. It counts as ADME, organism-based. On the set-up: dose 5 mg/kg, route subcutaneous, time 0 - last.
The nature of data set [13]: in vivo. To be noted: Sprague-Dawley CD, rat, brain, sc, 5 mg/kg.
Data set [14] in a line: Clearance in plasma of Sprague-Dawley CD rat at 5 mg/kg, sc administered as single dose measured over 1 to 168 hrs post dose by LC/MS-MS method. It counts as ADME, organism-based.
The nature of data set [15]: Ratio of AUClast in brain to plasma of Sprague-Dawley CD rat at 5 mg/kg, sc administered as single dose measured over 1 to 168 hrs post dose by LC/MS-MS method. The data set is classed as ADME, organism-based.
A short description of data set [16]: Total AUC in plasma of Sprague-Dawley CD rat at 5 mg/kg, sc administered as single dose measured over 1 to 168 hrs post dose by LC/MS-MS method. It counts as ADME, organism-based. On the set-up: dose 5 mg/kg, route subcutaneous, time AUCmax.
Data set [17] in a line: Drug level in brain of Sprague-Dawley CD rat at 5 mg/kg, sc administered as single dose measured after 168 hrs post dose by LC/MS-MS method. Conditions: in vivo. It counts as ADME, organism-based.
Data set [18] in a line: Total AUC in brain of Sprague-Dawley CD rat at 5 mg/kg, sc administered as single dose measured over 1 to 168 hrs post dose by LC/MS-MS method. It counts as ADME, organism-based. On the set-up: dose 5 mg/kg, time AUCmax, route subcutaneous. To be noted: in vivo.
A short description of data set [19]: Half life in brain of Sprague-Dawley CD rat at 5 mg/kg, sc administered as single dose measured over 1 to 168 hrs post dose by LC/MS-MS method. The data set is classed as ADME, organism-based.
A short description of data set [20]: Drug level in plasma of Sprague-Dawley CD rat at 5 mg/kg, sc administered as single dose measured after 168 hrs post dose by LC/MS-MS method. It counts as ADME, organism-based. To be noted: in vivo.

Sequence of Mu-type opioid receptor (Homo sapiens) (P35372 whole entry): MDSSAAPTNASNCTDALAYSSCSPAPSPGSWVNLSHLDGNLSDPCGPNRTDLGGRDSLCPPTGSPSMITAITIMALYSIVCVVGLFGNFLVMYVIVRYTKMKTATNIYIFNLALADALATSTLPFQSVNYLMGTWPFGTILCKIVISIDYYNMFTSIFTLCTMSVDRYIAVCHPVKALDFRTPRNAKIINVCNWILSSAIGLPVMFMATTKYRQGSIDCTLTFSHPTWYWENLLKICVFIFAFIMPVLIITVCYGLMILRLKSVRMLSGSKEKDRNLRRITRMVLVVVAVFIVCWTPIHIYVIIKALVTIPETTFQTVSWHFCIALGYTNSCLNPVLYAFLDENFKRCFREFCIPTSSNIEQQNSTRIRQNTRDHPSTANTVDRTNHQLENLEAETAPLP
Sequence of Kappa-type opioid receptor (Homo sapiens) (P41145 whole entry): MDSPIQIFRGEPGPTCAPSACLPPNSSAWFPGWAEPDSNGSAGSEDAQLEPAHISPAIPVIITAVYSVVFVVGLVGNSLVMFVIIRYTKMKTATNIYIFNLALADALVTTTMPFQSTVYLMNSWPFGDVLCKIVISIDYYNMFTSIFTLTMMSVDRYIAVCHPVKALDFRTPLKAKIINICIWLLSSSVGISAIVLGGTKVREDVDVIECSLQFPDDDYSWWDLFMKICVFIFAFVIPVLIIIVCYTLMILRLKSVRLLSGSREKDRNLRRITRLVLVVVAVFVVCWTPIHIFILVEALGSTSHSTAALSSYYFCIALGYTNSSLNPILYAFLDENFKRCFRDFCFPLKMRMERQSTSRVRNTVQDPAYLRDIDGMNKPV
Sequence of Delta-type opioid receptor (Homo sapiens) (P41143 whole entry): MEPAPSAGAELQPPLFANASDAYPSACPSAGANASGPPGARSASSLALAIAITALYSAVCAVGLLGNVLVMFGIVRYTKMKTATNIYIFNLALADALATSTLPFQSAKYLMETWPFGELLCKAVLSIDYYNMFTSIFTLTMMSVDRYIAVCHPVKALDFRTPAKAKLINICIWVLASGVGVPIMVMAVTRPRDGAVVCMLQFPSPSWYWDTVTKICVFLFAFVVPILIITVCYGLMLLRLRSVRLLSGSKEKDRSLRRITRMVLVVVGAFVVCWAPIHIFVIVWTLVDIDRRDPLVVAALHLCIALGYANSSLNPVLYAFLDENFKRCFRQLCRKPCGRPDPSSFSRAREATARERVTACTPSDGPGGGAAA

With `CC(C)[C@@H](CN1CCC(C)(C)CC1)NC(=O)[C@H]1Cc2ccc(O)cc2CN1`, the result in data set [1], in [3] and in data set [4] was inactive. Moreover, the Ratio Ke in the data set filed under Homo sapiens [2] is 40; in the data set listed under Homo sapiens [7], above 237. For the same compound, the Ke in [5] was found to be 142 nM; in data set [6] it was 847 nM.
For `CCC1CCN(C[C@@H](NC(=O)[C@H]2Cc3ccc(O)cc3CN2)C(C)C)CC1`, the result in data set [1], in data set [3] and in [4] was inactive. Also, the Ratio Ke stood at 30 in the data set listed under Homo sapiens [2] and 1000 in the data set filed under Homo sapiens [7]. In addition, the Ke in data set [8] was 2.48 nM; in [5] it was 74.8 nM; in data set [6] it was 2490 nM.
Turning to `CC1CCN(C[C@@H](NC(=O)[C@H]2Cc3ccc(O)cc3CN2)C(C)C)CC1`, the outcome in [1], in data set [3] and in data set [4] was inactive. Besides, the Tmax amounted to 1 h in the data set “in vivo [9]” and 4 h in the data set “in vivo [13]”. For the same compound, in data set [10], the AUClast stood at 18765 ng·h/g. For the same compound, the half-life in data set [11] is 30.7 h; in [19], 57.2 h. The compound also had an AUC(0-t) in [12] of 1860 ng·h/mL. Besides, the CL/F in data set [14] was 43.8 mL/min/kg. The BPR in data set [15] (brain) was 10.07. For the same compound, the values for the AUC in data set [16] and in data set [18] were 1900 ng·h/mL and 21400 ng·h/g, respectively. The Drug uptake entry in data set [17] and in [20] was “Active” throughout. The Ke in data set [6] is above 3000 nM.
As for `CC(C)[C@@H](CN1CC[C@@](C)(c2cccc(O)c2)[C@@H](C)C1)NC(=O)[C@H]1Cc2ccc(O)cc2CN1` [JDTIC], the Kp in data set [15] (Sprague-Dawley CD, brain and plasma, read-out: BPR) stood at 7.
